According to patent publication US20250230171A1 (MOMA Therapeutics, Inc., priority 2023, published 2025):
Like-named read-outs stand apart in the source and are kept apart here.

What was measured:
[1] = biological target: biotinylated Avi-POLθ[2-894] (Homo sapiens (Human), UniProt O75417); experiment: POLθ ATPase assay (ADP-Glo); details: n=2, read-out: Biochemical ATPase ADPGlo IC50
DLD1 BRCA2 (−/−) cells = experiment: 7-day cell viability assay (CellTiter-Glo), DLD1 BRCA2 (−/−); type: cell-based, human; details: n=2, read-out: Viability IC50 (uM) DLD1 BRCA2 null
In short: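 7-day growth assay in DLD1 cells with or without BRCA2; seeding densities chosen to keep log-linear growth. Compound: 10 uM top, 3-fold, 9 points. Endpoint: CTG ATP luminescence at RT.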

DLD1 WT cells = experiment: 7-day cell viability assay (CellTiter-Glo), DLD1 parental (WT); type: cell-based, human; details: n=2
[2] = Homo sapiens, DLD-1, 168 h, 7-day CellTiter-Glo
[3] = Homo sapiens, DLD-1, 168 h, 7-day viability

biotinylated Avi-POLθ[2-894], sequence (O75417 2-894): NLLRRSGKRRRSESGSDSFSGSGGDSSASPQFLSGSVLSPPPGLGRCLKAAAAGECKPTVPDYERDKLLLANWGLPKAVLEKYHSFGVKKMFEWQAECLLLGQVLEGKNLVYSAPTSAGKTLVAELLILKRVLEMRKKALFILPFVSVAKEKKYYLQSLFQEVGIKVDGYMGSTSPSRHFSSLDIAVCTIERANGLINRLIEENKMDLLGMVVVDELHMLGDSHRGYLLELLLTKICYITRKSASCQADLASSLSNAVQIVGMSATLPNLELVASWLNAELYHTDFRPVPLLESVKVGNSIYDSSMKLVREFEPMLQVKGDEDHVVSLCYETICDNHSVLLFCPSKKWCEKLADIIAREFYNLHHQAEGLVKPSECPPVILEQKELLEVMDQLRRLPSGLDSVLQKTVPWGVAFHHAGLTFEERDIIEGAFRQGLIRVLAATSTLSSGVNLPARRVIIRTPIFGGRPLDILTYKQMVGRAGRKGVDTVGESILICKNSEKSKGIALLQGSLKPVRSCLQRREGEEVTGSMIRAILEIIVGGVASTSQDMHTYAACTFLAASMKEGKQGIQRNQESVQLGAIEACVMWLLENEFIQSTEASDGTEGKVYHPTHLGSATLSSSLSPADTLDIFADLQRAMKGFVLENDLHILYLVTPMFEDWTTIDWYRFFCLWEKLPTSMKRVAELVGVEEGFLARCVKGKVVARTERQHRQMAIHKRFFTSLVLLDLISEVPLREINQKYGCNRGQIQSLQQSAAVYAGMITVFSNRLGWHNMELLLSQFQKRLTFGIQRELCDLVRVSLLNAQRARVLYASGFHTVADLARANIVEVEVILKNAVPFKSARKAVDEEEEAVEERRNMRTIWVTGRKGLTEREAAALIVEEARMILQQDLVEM

| IC50 ([1]; POLθ ATPase, ADP-Glo) [nM] | IC50 (DLD1 BRCA2 (−/−) cells; [2]) [µM] | IC50 [1] [nM] | IC50 (DLD1 BRCA2 (−/−) cells; [3]) [µM] | Compound | IC50 (DLD1 WT cells; [2]) [µM] | IC50 (DLD1 WT cells; [3]) [µM] | IC50 (DLD1 BRCA2 (−/−) cells; 7-day viability) [µM] | IC50 (DLD1 WT cells; 7-day viability) [µM] |
| --- | --- | --- | --- | --- | --- | --- | --- | --- |
| 1 to 15 | 0.001 to 0.1 |  |  | COc1cnc(Cl)cc1-c1cc(C)ncc1C(=O)Nc1nc2c(s1)CN(C(=O)c1ccc(C(F)(F)F)nc1OC)[C@H]2C (single isomer, unassigned) [Example 1041, (S or R)-2′-chloro-5′-methoxy-N-(5-(2-methoxy-6-(trifluoromethyl)nicotinoyl)-4-methyl-5,6-dihydro-4H-pyrrolo[3,4-d]thiazol-2-yl)-6-methyl-[4,4′-bipyridine]-3-carboxamide] | ≥ 10 |  |  |  |
|  |  | 1 to 15 | 0.5 to 2 | COc1ccc(C#N)cc1-c1cc(C)ncc1C(=O)Nc1nc2c(s1)CN(C(=O)C1CCCC1)C2 |  | ≥ 10 |  |  |
|  |  | ≥ 900 | ≥ 2 | COc1ccccc1-c1cc(C)ncc1C(=O)Nc1nc2c(s1)C(=O)NCC2 |  | ≥ 10 |  |  |
|  |  | 1 to 15 | 0.001 to 0.1 | COc1cnc(Cl)cc1-c1cc(C)ncc1C(=O)Nc1nc2c(s1)CN(C(=O)C1CCCC(OC)C1)C2 (racemic) [Example 128, (Racemic) 2′-chloro-5′-methoxy-N-(5-(3-methoxycyclohexane-1-carbonyl)-5,6-dihydro-4H-pyrrolo[3,4-d]thiazol-2-yl)-6-methyl-[4,4′-bipyridine]-3-carboxamide] |  | ≥ 10 |  |  |
|  |  | 1 to 15 | 0.001 to 0.1 | COc1cnc(Cl)cc1-c1cc(C)ncc1C(=O)Nc1nc2c(s1)CN(C(=O)C1CCC(OC(F)F)CC1)C2 (stereo not drawn) [Example 2, (Cis and Trans) 2′-chloro-N-(5-(4-(difluoromethoxy)cyclohexane-1-carbonyl)-5,6-dihydro-4H-pyrrolo[3,4-d]thiazol-2-yl)-5′-methoxy-6-methyl-[4,4′-bipyridine]-3-carboxamide] |  | ≥ 10 |  |  |
| 1 to 15 | 0.001 to 0.1 |  |  | COc1cnc(Cl)cc1-c1cc(C)ncc1C(=O)Nc1nc2c(s1)CN(C(=O)c1cnc(C)cn1)C2 | 2 to 5 |  |  |  |
| 1 to 15 | 0.001 to 0.1 |  |  | COc1cnc(Cl)cc1-c1cc(C)ncc1C(=O)Nc1nc2c(s1)CN(C(=O)c1cnc(C(F)(F)F)cn1)C2 | ≥ 10 |  |  |  |
|  |  | 1 to 15 | 0.001 to 0.1 | COc1cnc(Cl)cc1-c1cc(C)ncc1C(=O)Nc1nc2c(s1)CN(C(=O)[C@H]1C[C@@H](OC(F)F)C1)C2 [Example 10, 2′-chloro-N-(5-((1s,3s)-3-(difluoromethoxy)cyclobutane-1-carbonyl)-5,6-dihydro-4H-pyrrolo[3,4-d]thiazol-2-yl)-5′-methoxy-6-methyl-[4,4′-bipyridine]-3-carboxamide] |  | ≥ 10 |  |  |
|  |  | 1 to 15 | 0.1 to 0.25 | COc1cnc(Cl)cc1-c1cc(C)ncc1C(=O)Nc1nc2c(s1)CN(C(=O)[C@H]1C[C@@H](OC)C1)C2 [Example 171] |  | ≥ 10 |  |  |
|  |  | 1 to 15 | 0.1 to 0.25 | COc1cnc(Cl)cc1-c1cc(C)ncc1C(=O)Nc1nc2c(s1)CN(C(=O)c1ncc(C(F)F)cc1Cl)C2 |  | ≥ 10 |  |  |
|  |  | 1 to 15 | 0.001 to 0.1 | COc1cnc(Cl)cc1-c1cc(C)ncc1C(=O)Nc1nc2c(s1)CN(C(=O)[C@H]1C[C@H](OC(F)(F)F)C1)C2 [Example 26, 2′-chloro-5′-methoxy-6-methyl-N-(5-((1r,3r)-3-(trifluoromethoxy)cyclobutane-1-carbonyl)-5,6-dihydro-4H-pyrrolo[3,4-d]thiazol-2-yl)-[4,4′-bipyridine]-3-carboxamide] |  | 5 to 10 |  |  |
|  |  | 1 to 15 | 0.001 to 0.1 | COc1cnc(Cl)cc1-c1cc(C)ncc1C(=O)Nc1nc2c(s1)CN(C(=O)C1CC3(CCC3)C1)C2 [Example 8, 2′-chloro-5′-methoxy-6-methyl-N-(5-(spiro[3.3]heptane-2-carbonyl)-5,6-dihydro-4H-pyrrolo[3,4-d]thiazol-2-yl)-[4,4′-bipyridine]-3-carboxamide] |  | 5 to 10 |  |  |
| 1 to 15 | 0.001 to 0.1 |  |  | COc1cnc(Cl)cc1-c1cc(C)ncc1C(=O)Nc1nc2c(s1)CN(C(=O)c1nc(C(F)F)ccc1Cl)C2 | ≥ 10 |  |  |  |
|  |  | 1 to 15 | ≥ 2 | COc1ccc(C#N)cc1-c1cc(C)ncc1C(=O)Nc1nc2c(s1)CN(C(=O)c1ccncc1C)C2 |  | ≥ 10 |  |  |
|  |  | 1 to 15 | 0.001 to 0.1 | COc1cnc(Cl)cc1-c1cc(C)ncc1C(=O)Nc1nc2c(s1)CN(C(=O)c1c(Cl)cnn1C)C2 [Example 156] |  | ≥ 10 |  |  |
|  |  | 1 to 15 | 0.5 to 2 | CCNS(=O)(=O)N1Cc2nc(NC(=O)c3cnc(C)cc3-c3cc(C#N)ccc3OC)sc2C1 [Example 299] |  | ≥ 10 |  |  |
|  |  | 1 to 15 | 0.5 to 2 | COc1ccc(C#N)cc1-c1cc(C)ncc1C(=O)Nc1nc2c(s1)CN(C(=O)c1cccc(C)n1)C2 |  | ≥ 10 |  |  |

| IC50 ([1]; POLθ ATPase, ADP-Glo) [nM] | IC50 (DLD1 BRCA2 (−/−) cells; [2]) [µM] | IC50 [1] [nM] | IC50 (DLD1 BRCA2 (−/−) cells; [3]) [µM] | Compound | IC50 (DLD1 WT cells; [2]) [µM] | IC50 (DLD1 WT cells; [3]) [µM] | IC50 (DLD1 BRCA2 (−/−) cells; 7-day viability) [µM] | IC50 (DLD1 WT cells; 7-day viability) [µM] |
| --- | --- | --- | --- | --- | --- | --- | --- | --- |
|  |  | 1 to 15 | 0.001 to 0.1 | COc1cnc(Cl)cc1-c1cc(C)ncc1C(=O)Nc1nc2c(s1)CN(C(=O)c1cccc(C(F)F)n1)C2 [Example 18, 2′-chloro-N-(5-(6-(difluoromethyl)picolinoyl)-5,6-dihydro-4H-pyrrolo[3,4-d]thiazol-2-yl)-5′-methoxy-6-methyl-[4,4′-bipyridine]-3-carboxamide] |  | 5 to 10 |  |  |
|  |  | 1 to 15 | 0.001 to 0.1 | COc1ccc(C#N)cc1-c1cc(C)ncc1C(=O)Nc1nc2c(s1)CN(C(=O)C1CC(OC(F)F)C1)C2 (stereo not drawn) [Example 179] |  | ≥ 10 |  |  |
|  |  | 1 to 15 | 0.5 to 2 | COc1ccc(C#N)cc1-c1cc(C)ncc1C(=O)Nc1nc2c(s1)CN(S(=O)(=O)N1CCCC1)C2 |  | ≥ 10 |  |  |
|  |  | 1 to 15 | ≥ 2 | COc1ccc(C#N)cc1-c1cc(C)ncc1C(=O)Nc1nc2c(s1)CN(S(=O)(=O)NC(C)C)C2 [Example 269] |  | ≥ 10 |  |  |
|  |  | 1 to 15 | 0.1 to 0.25 | COc1cnc(Cl)cc1-c1cc(C)ncc1C(=O)Nc1nc2c(s1)CN(C(=O)c1ccc(O)cn1)C2 [Example 174] |  | ≥ 10 |  |  |
|  |  | 1 to 15 | 0.1 to 0.25 | COc1cnc(Cl)cc1-c1cc(C)ncc1C(=O)Nc1nc2c(s1)CN(C(=O)[C@@H]1CCCCO1)C2 [Example 216, (S) 2′-chloro-5′-methoxy-6-methyl-N-(5-(tetrahydro-2H-pyran-2-carbonyl)-5,6-dihydro-4H-pyrrolo[3,4-d]thiazol-2-yl)-[4,4′-bipyridine]-3-carboxamide] |  | ≥ 10 |  |  |
| 1 to 15 | 0.001 to 0.1 |  |  | COc1cnc(Cl)cc1-c1cc(C)ncc1C(=O)Nc1nc2c(s1)CN(C(=O)c1nccn3nccc13)C2 | ≥ 10 |  |  |  |
|  |  | 1 to 15 | 0.001 to 0.1 | COc1cnc(Cl)cc1-c1cc(C)ncc1C(=O)Nc1nc2c(s1)CN(C(=O)c1nc(C)co1)C2 [Example 67, 2′-chloro-5′-methoxy-6-methyl-N-(5-(4-methyloxazole-2-carbonyl)-5,6-dihydro-4H-pyrrolo[3,4-d]thiazol-2-yl)-[4,4′-bipyridine]-3-carboxamide] |  | 0.5 to 2 |  |  |
|  |  | 1 to 15 | 0.1 to 0.25 | COc1cnc(Cl)cc1-c1cc(C)ncc1C(=O)Nc1nc2c(s1)CN(C(=O)c1ncccc1C(F)F)C2 [Example 158] |  | ≥ 10 |  |  |
|  |  | 1 to 15 | ≥ 2 | COc1cnc(Cl)cc1-c1cc(C)ncc1C(=O)Nc1nc2c(s1)CN(C(=O)c1cn(C(C)C)nc1C)C2 [Example 175] |  | ≥ 10 |  |  |
|  |  | 1 to 15 | 0.001 to 0.1 | COc1cnc(Cl)cc1-c1cc(C)ncc1C(=O)Nc1nc2c(s1)CN(C(=O)c1cc(Cl)n(C)n1)C2 [Example 73, 2′-chloro-N-(5-(5-chloro-1-methyl-1H-pyrazole-3-carbonyl)-5,6-dihydro-4H-pyrrolo[3,4-d]thiazol-2-yl)-5′-methoxy-6-methyl-[4,4′-bipyridine]-3-carboxamide] |  | 0.001 to 0.5 |  |  |
| 1 to 15 | 0.001 to 0.1 |  |  | COc1cnc(Cl)cc1-c1cc(C)ncc1C(=O)Nc1nc2c(s1)CN(C(=O)c1ccc(C(F)(F)F)c(Cl)n1)C2 | ≥ 10 |  |  |  |
|  |  | 1 to 15 | 0.25 to 0.5 | COc1cnc(Cl)cc1-c1cc(C)ncc1C(=O)Nc1nc2c(s1)CN(C(=O)c1ccncc1)C2 |  | ≥ 10 |  |  |
|  |  | 1 to 15 | 0.001 to 0.1 | COc1cnc(C(=O)N2Cc3nc(NC(=O)c4cnc(C)cc4-c4cc(Cl)ncc4OC)sc3C2)o1 [Example 79, 2′-chloro-5′-methoxy-N-(5-(5-methoxyoxazole-2-carbonyl)-5,6-dihydro-4H-pyrrolo[3,4-d]thiazol-2-yl)-6-methyl-[4,4′-bipyridine]-3-carboxamide] |  | 0.5 to 2 |  |  |
|  |  | 1 to 15 | 0.1 to 0.25 | COc1cn2cncc2cc1-c1cc(C)ncc1C(=O)Nc1nc2c(s1)CN(C(=O)c1c(Cl)cnn1C)C2 |  | ≥ 10 |  |  |
|  |  | 1 to 15 | 0.001 to 0.1 | COc1cnc(Cl)cc1-c1cc(C)ncc1C(=O)Nc1nc2c(s1)CN(C(=O)c1c(C)cnn1C)C2 [Example 81, 2′-chloro-N-(5-(1,4-dimethyl-1H-pyrazole-5-carbonyl)-5,6-dihydro-4H-pyrrolo[3,4-d]thiazol-2-yl)-5′-methoxy-6-methyl-[4,4′-bipyridine]-3-carboxamide] |  | ≥ 10 |  |  |

| Compound | IC50 ([1]; POLθ ATPase, ADP-Glo) [nM] | IC50 (DLD1 BRCA2 (−/−) cells; [2]) [µM] | IC50 [1] [nM] | IC50 (DLD1 BRCA2 (−/−) cells; [3]) [µM] | IC50 (DLD1 WT cells; [2]) [µM] | IC50 (DLD1 WT cells; [3]) [µM] | IC50 (DLD1 BRCA2 (−/−) cells; 7-day viability) [µM] | IC50 (DLD1 WT cells; 7-day viability) [µM] |
| --- | --- | --- | --- | --- | --- | --- | --- | --- |
| 2′-chloro-N-(5-(6- (difluoromethoxy)nicotinoyl)-5,6- dihydro-4H-pyrrolo[3,4-d]thiazol-2-yl)- 5′-methoxy-6-methyl-[4,4′-bipyridine]- 3-carboxamide [Example 32] |  |  | 1 to 15 |  |  |  | 0.001 to 0.1 | 2 to 5 |
